We go through 29 compounds from US20240150377A1, “MODULATORS OF CYSTIC FIBROSIS TRANSMEMBRANE CONDUCTANCE REGULATOR” (VERTEX PHARMACEUTICALS INCORPORATED, priority 2020, published 2024).

A word on the EC50: it is the midpoint of the concentration-response curve.

T1 sequence (P13569 with tags, fused parts or gaps DEL508-508): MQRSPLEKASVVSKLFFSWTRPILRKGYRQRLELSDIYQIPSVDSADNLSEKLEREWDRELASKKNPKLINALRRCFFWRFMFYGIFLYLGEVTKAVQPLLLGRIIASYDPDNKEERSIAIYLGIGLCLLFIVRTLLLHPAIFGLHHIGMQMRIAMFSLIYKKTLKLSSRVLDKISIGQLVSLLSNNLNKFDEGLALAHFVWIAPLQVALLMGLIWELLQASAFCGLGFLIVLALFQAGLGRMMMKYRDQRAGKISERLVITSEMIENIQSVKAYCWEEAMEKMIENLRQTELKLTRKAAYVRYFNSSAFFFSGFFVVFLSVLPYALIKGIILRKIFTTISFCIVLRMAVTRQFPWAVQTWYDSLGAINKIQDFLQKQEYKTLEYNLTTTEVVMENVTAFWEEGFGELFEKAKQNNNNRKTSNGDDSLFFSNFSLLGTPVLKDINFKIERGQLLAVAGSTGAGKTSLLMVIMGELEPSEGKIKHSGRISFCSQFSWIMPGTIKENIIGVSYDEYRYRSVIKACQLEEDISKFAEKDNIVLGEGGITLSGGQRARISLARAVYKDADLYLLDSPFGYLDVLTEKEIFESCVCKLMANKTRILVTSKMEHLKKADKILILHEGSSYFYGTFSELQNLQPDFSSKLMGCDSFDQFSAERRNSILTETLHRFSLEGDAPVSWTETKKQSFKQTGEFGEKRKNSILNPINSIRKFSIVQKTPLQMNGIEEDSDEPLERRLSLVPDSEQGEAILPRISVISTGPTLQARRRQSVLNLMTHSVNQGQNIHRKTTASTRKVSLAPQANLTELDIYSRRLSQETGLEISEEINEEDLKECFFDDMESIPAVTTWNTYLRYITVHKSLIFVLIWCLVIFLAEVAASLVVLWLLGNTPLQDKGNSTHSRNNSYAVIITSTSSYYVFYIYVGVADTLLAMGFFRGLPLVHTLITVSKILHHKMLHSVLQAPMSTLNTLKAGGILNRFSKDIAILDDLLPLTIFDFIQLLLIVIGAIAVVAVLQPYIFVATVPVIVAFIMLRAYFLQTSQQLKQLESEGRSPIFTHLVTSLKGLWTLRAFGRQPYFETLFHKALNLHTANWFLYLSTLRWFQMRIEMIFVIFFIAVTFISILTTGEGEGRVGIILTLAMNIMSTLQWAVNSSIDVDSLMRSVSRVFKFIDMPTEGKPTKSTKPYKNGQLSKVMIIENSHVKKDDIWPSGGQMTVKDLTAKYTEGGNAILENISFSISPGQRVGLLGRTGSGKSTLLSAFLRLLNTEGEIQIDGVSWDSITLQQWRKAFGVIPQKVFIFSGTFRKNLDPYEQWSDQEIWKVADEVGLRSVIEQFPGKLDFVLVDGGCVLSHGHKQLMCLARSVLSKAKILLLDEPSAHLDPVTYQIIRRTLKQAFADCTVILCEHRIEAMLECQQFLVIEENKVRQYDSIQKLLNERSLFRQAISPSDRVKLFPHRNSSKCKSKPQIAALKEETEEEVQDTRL

One test addresses T1, CFTR (Homo sapiens, UniProt P13569, DEL508-508).
T1 construct: endogenous in cells; host or cells: primary human bronchial epithelial cells from CF subjects (F508del/MF-HBE), differentiated at air-liquid interface
Briefly: HBE2 assay: Ussing chamber assay of CFTR-mediated short-circuit currents. It counts as cell-based. The following applies: 3 μM corrector; F508del/MF-HBE cells; with 44 nM potentiator, 18-24 hours, 20% human serum. As to the method: Ussing Chamber Assay of CFTR-Mediated Short-Circuit Currents
After four days the apical media was removed, and the cells were grown at an air liquid interface for >14 days prior to use.
To isolate the CFTR-mediated short-circuit (ISC) current, F508del/MF-HBE grown on Costar® Snapwell™ cell culture inserts were mounted in an Ussing chamber and the transepithelial ISC was measured under voltage-clamp recording conditions (Vhold=0 mV) at 37° C. […] The CFTR-mediated ISC (μA/cm^2) for each condition was determined from the peak forskolin response to the steady-state current following inhibition.
Identification of Corrector Compounds
The activity of the CFTR corrector compounds on the CFTR-mediated ISC was determined in Ussing chamber studies as described above.
For `Cc1cccc(C)c1-c1cc2nc(n1)NS(=O)(=O)c1cccc(c1)C(=O)N(Cc1cncc(N(C)C3CCC3)n1)[C@]1(CCC(C)(C)C1)CO2` (single isomer, unassigned) [Compound 1325, 12-[[6-[cyclobutyl(methyl)amino]pyrazin-2-yl]methyl]-6-(2,6-dimethylphenyl)-1′,1′-dimethyl-2,2-dioxo-spiro[9-oxa-2λ^6-thia-3,5,12,19-tetrazatricyclo[12.3.1.14,8]nonadeca-1(18),4(19),5,7,14,16-hexaene-11,3′-cyclopentane]-13-one], the “HBE2 Activity at 3 μM (%)” value is listed as “+++ (+++ is >60+)”.

With `Cc1cccc(C)c1-c1cc2nc(n1)NS(=O)(=O)c1cccc(c1)C(=O)N(Cc1cncc(N(C)C3CCC3)n1)[C@]1(CCC(C)(C)C1)CO2` (single isomer, unassigned) [Compound 1326, 12-[[6-[cyclobutyl(methyl)amino]pyrazin-2-yl]methyl]-6-(2,6-dimethylphenyl)-1′,1′-dimethyl-2,2-dioxo-spiro[9-oxa-2λ^6-thia-3,5,12,19-tetrazatricyclo[12.3.1.14,8]nonadeca-1(18),4(19),5,7,14,16-hexaene-11,3′-cyclopentane]-13-one], the “HBE2 Activity at 3 μM (%)” value is recorded as “+++ (+++ is >60+)”.

For `Cc1cccc(C)c1-c1cc2nc(n1)NS(=O)(=O)c1cccc(c1)C(=O)N(Cc1cncc(N3CCCC[C@H]3C)n1)[C@@H](CCC(C)(C)F)CO2` (single isomer, unassigned) [Compound 1327], the “HBE2 Activity at 3 μM (%)” value is on record as “+++ (+++ is >60+)”.

Consider `Cc1cccc(C)c1-c1cc2nc(n1)NS(=O)(=O)c1cccc(c1)C(=O)N(Cc1cncc(N3CCCC[C@H]3C)n1)[C@@H](CCC(C)(C)F)CO2` (single isomer, unassigned) [Compound 1328], for which the “HBE2 Activity at 3 μM (%)” value is “++ (++ is 30-60%)”.

For the compound `CCC(C)(C)C[C@@H]1COc2cc(-c3c(C)cccc3C)nc(n2)NS(=O)(=O)c2cccc(c2)C(=O)N1Cc1cncc(N(C)C2CCC2)n1` (single isomer, unassigned) [Compound 1330, 12-[[6-[cyclobutyl(methyl)amino]pyrazin-2-yl]methyl]-11-(2,2-dimethylbutyl)-6-(2,6-dimethylphenyl)-2,2-dioxo-9-oxa-2λ^6-thia-3,5,12,19-tetrazatricyclo[12.3.1.14,8]nonadeca-1(18),4,6,8(19),14,16-hexaen-13-one], the “HBE2 Activity at 3 μM (%)” value was “+++ (+++ is >60+)”.

On to `Cc1cccc(C)c1-c1cc2nc(n1)NS(=O)(=O)c1cccc(c1)C(=O)N(Cc1cncc(N3CCCC3C)n1)[C@H](C1CC(C)(C)C1)CO2` (single isomer, unassigned) [Compound 1337], for which the “HBE2 Activity at 3 μM (%)” value is reported as “++ (++ is 30-60%)”.

`Cc1cccc(C)c1-c1cc2nc(n1)NS(=O)(=O)c1cccc(c1)C(=O)N(Cc1cncc(N3CCCC3C)n1)[C@H](C1CC(C)(C)C1)CO2` (single isomer, unassigned) [Compound 1338]: the “HBE2 Activity at 3 μM (%)” value was “+++ (+++ is >60+)”.

In the case of `Cc1cccc(C)c1-c1cc2nc(n1)NS(=O)(=O)c1cccc(c1)C(=O)N(Cc1cncc(N(C)C3CCC3)n1)[C@H](CC1CC(C)(C)C1)CO2` (single isomer, unassigned) [Compound 1339, 12-[[6-[Cyclobutyl(methyl)amino]pyrazin-2-yl]methyl]-11-[(3,3-dimethylcyclobutyl)methyl]-6-(2,6-dimethylphenyl)-2,2-dioxo-9-oxa-2λ^6-thia-3,5,12,19-tetrazatricyclo[12.3.1.14,8]nonadeca-1(18),4(19),5,7,14,16-hexaen-13-one], the “HBE2 Activity at 3 μM (%)” value is recorded as “+++ (+++ is >60+)”.

With `Cc1cccc(C)c1-c1cc2nc(n1)NS(=O)(=O)c1cccc(c1)C(=O)N(Cc1cncc(N(C)C3CCC3)n1)[C@H](CC1CC(C)(C)C1)CO2` (stereo in doubt) [Compound 1340, 12-[[6-[cyclobutyl(methyl)amino]pyrazin-2-yl]methyl]-11-[(3,3-dimethylcyclobutyl)methyl]-6-(2,6-dimethylphenyl)-2,2-dioxo-9-oxa-2λ^6-thia-3,5,12,19-tetrazatricyclo[12.3.1.14,8]nonadeca-1(18),4(19),5,7,14,16-hexaen-13-one], the “HBE2 Activity at 3 μM (%)” value was “++ (++ is 30-60%)”.

The same test, now with this note: 3 μM; F508del/MF-HBE cells; with 44 nM potentiator; 18-24 hours; 20% human serum.
As to `Cc1cccc(C)c1-c1cc2nc(n1)NS(=O)(=O)c1cccc(c1)C(=O)N(Cc1ccn([C@H](C)C3CCOCC3)n1)[C@H](CC(C)(C)C)CO2` (stereo in doubt) [Compound 1456], the “HBE2 Activity at 3 μM (%)” value is on record as “+++ (+++ is >60+)”.

As to `Cc1cccc(C)c1-c1cc2nc(n1)NS(=O)(=O)c1cccc(c1)C(=O)N(Cc1ncc(OC(C)C)cn1)[C@H](C(C)C1CC1)CO2` (stereo in doubt) [Compound 1557], the “HBE2 Activity at 3 μM (%)” value was “+ (+ is <300))”.

For the compound `Cc1cccc(C)c1-c1cc2nc(n1)NS(=O)(=O)c1cccc(c1)C(=O)N(Cc1ncc(OC(C)C)cn1)[C@H]([C@H](C)C1CC1)CO2` (stereo in doubt) [Compound 1558], the “HBE2 Activity at 3 μM (%)” value is “+++ (+++ is >60+)”.

As to `Cc1cccc(C)c1-c1cc2nc(n1)NS(=O)(=O)c1cccc(c1)C(=O)N(Cc1ncc(OC(C)C)cn1)[C@H]([C@@H](C)C1CC1)CO2` (stereo in doubt) [Compound 1559], the “HBE2 Activity at 3 μM (%)” value is “+++ (+++ is >60+)”.

Regarding `Cc1cccc(C)c1-c1cc2nc(n1)NS(=O)(=O)c1cccc(c1)C(=O)N(Cc1ncc(OC(C)C)cn1)[C@H]([C@@H](C)C(C)C)CO2` (stereo in doubt) [Compound 1570], the “HBE2 Activity at 3 μM (%)” value was “+ (+ is <300))”.

For `Cc1cccc(C)c1-c1cc2nc(n1)NS(=O)(=O)c1cccc(c1)C(=O)N(Cc1ncc(OC(C)C)cn1)[C@H]([C@@H](C)C(C)C)CO2` (stereo in doubt) [Compound 1571], the “HBE2 Activity at 3 μM (%)” value is recorded as “+ (+ is <300))”.

As for `Cc1cccc(C)c1-c1cc2nc(n1)NS(=O)(=O)c1cccc(c1)C(=O)N(Cc1ncc(OC(C)C)cn1)[C@H]([C@@H](C)C(C)C)CO2` (stereo in doubt) [Compound 1572], the “HBE2 Activity at 3 μM (%)” value was “+++ (+++ is >60+)”.

On to `Cc1cccc(C)c1-c1cc2nc(n1)NS(=O)(=O)c1cccc(c1)C(=O)N(Cc1ncc(OC(C)C)cn1)[C@H]([C@@H](C)C(C)C)CO2` (stereo in doubt) [Compound 1573], for which the “HBE2 Activity at 3 μM (%)” value is “+++ (+++ is >60+)”.

For `Cc1cccc(C)c1-c1cc2nc(n1)NS(=O)(=O)c1cccc(c1)C(=O)N(Cc1cccc(N3CCC[C@@]3(C)CO)n1)[C@H](CC(C)(C)C)CO2` (stereo in doubt) [Compound 1585], the “HBE2 Activity at 3 μM (%)” value is “+++ (+++ is >60+)”.

Take `CO[C@@H]1CC[C@@H]1N(C)c1cncc(CN2C(=O)c3cccc(c3)S(=O)(=O)Nc3nc(cc(-c4c(C)cccc4C)n3)OC[C@H]2CC(C)(C)C)n1` (stereo in doubt) [Compound 1607]: the “HBE2 Activity at 3 μM (%)” value is listed as “+++ (+++ is >60+)”.

Turning to `Cc1cccc(C)c1-c1cc2nc(n1)NS(=O)(=O)c1cccc(c1)C(=O)N(Cc1cncc(N3CCC4NC(=O)CC43)n1)[C@H](CC(C)(C)C)CO2` (stereo in doubt) [Compound 1621], the “HBE2 Activity at 3 μM (%)” value is listed as “++ (++ is 30-60%)”.

As to `Cc1cccc(C)c1-c1cc2nc(n1)NS(=O)(=O)c1cccc(c1)C(=O)N(Cc1cncc(N3CCC4NC(=O)CC43)n1)[C@H](CC(C)(C)C)CO2` (stereo in doubt) [Compound 1622], the “HBE2 Activity at 3 μM (%)” value is reported as “++ (++ is 30-60%)”.

For `Cc1cccc(C)c1-c1cc2nc(n1)NS(=O)(=O)c1cccc(c1)C(=O)N(Cc1cncc(N3CC4OCC[C@@H]43)n1)[C@H](CC(C)(C)C)CO2` (stereo in doubt) [Compound 1628], the “HBE2 Activity at 3 μM (%)” value was “+++ (+++ is >60+)”.

In the case of `Cc1cccc(C)c1-c1cc2nc(n1)NS(=O)(=O)c1cccc(c1)C(=O)N(Cc1cncc(N3CC4OCC[C@@H]43)n1)[C@H](CC(C)(C)C)CO2` (stereo in doubt) [Compound 1629], the “HBE2 Activity at 3 μM (%)” value was “+++ (+++ is >60+)”.

With `CO[C@H]1C[C@H](CN(C)c2cncc(CN3C(=O)c4cccc(c4)S(=O)(=O)Nc4nc(cc(-c5c(C)cccc5C)n4)OC[C@H]3CC(C)(C)C)n2)C1` (stereo in doubt) [Compound 1632], the “HBE2 Activity at 3 μM (%)” value was “+++ (+++ is >60+)”.

Take `CO[C@H](C)CN(C)c1cncc(CN2C(=O)c3cccc(c3)S(=O)(=O)Nc3nc(cc(-c4c(C)cccc4C)n3)OC[C@H]2CC(C)(C)C)n1` (stereo in doubt) [Compound 1634]: the “HBE2 Activity at 3 μM (%)” value was “+++ (+++ is >60+)”.

Consider `Cc1cccc(C)c1-c1cc2nc(n1)NS(=O)(=O)c1cccc(c1)C(=O)N(Cc1cncc(N3CC[C@H]3C3CCC3)n1)[C@H](CC(C)(C)C)CO2` (stereo in doubt) [Compound 1637], for which the “HBE2 Activity at 3 μM (%)” value is given as “+++ (+++ is >60+)”.

In the case of `Cc1cccc(C)c1-c1cc2nc(n1)NS(=O)(=O)c1cccc(c1)C(=O)N(Cc1cncc(N3CC[C@H]4C3CC(=O)N4C)n1)[C@H](CC(C)(C)C)CO2` (stereo in doubt) [Compound 1640], the “HBE2 Activity at 3 μM (%)” value is reported as “+++ (+++ is >60+)”.

For `Cc1cccc(C)c1-c1cc2nc(n1)NS(=O)(=O)c1cccc(c1)C(=O)N(Cc1cncc(N3CC[C@@H]4CN(C(=O)OC(C)(C)C)CC43)n1)[C@H](CC(C)(C)C)CO2` (stereo in doubt) [Compound 1649], the “HBE2 Activity at 3 μM (%)” value was “+++ (+++ is >60+)”.

The same test, now with this note: F508del/MF-HBE cells; with 44 nM potentiator; 18-24 hours; 20% human serum.
On to `CO[C@@H]1CC[C@@H]1N(C)c1cncc(CN2C(=O)c3cccc(c3)S(=O)(=O)Nc3nc(cc(-c4c(C)cccc4C)n3)OC[C@H]2CC(C)(C)C)n1` (stereo in doubt) [Compound 1610], for which the EC50 is < 1000 nM.

Take `CO[C@H]1C[C@H](CN(C)c2cncc(CN3C(=O)c4cccc(c4)S(=O)(=O)Nc4nc(cc(-c5c(C)cccc5C)n4)OC[C@H]3CC(C)(C)C)n2)C1` (stereo in doubt) [Compound 1632]: the EC50 is < 1000 nM.

The same test, now with this note: F508del/MF-HBE cells; with 44 nM potentiator; 18-24 hours; 20% human serum; read-out: HBE2 Max activity (%).
Consider `CO[C@@H]1CC[C@@H]1N(C)c1cncc(CN2C(=O)c3cccc(c3)S(=O)(=O)Nc3nc(cc(-c4c(C)cccc4C)n3)OC[C@H]2CC(C)(C)C)n1` (stereo in doubt) [Compound 1610], for which the Emax is > 60%.

For the compound `CO[C@H]1C[C@H](CN(C)c2cncc(CN3C(=O)c4cccc(c4)S(=O)(=O)Nc4nc(cc(-c5c(C)cccc5C)n4)OC[C@H]3CC(C)(C)C)n2)C1` (stereo in doubt) [Compound 1632], the Emax is > 60%.
